In general, mortality refers to the percentage killed.

≈ marks a conversion by molar mass, not a printed value.

Data on two compounds can be found in US8951563B2, “Antibiotic drug delivery and potentiation” (Technion Research & Development Foundation Limited, priority 2009, dated 2015).

For series [1], the system named is E. coli AG100. Nature of the series: Ethidium bromide (EtBr) uptake assay. Format: cell-based. The following applies: bacteria in PBS, FIG. 2A. As to the method: Cells were grown overnight in LB broth at 37° C. to an optical density of 1 (620 nm), washed twice in 200 μl PBS, and resuspended in the same buffer containing 0.5% glucose. […] Fluorescence was recorded by a BioTeK synergy HT Microplate Reader (excitation, 530 nm; emission, 645 nm).
Ethidium bromide is known for its ability to spontaneously translocate across bacterial membranes and interact with nucleic acids, as can be evidenced by the increase in fluorescence signal.

Series [2] in a line: Cochleate formation by light microscopy. It counts as physicochemical. The arrangement: key: or above (E!); excellent (E); good (G); poor (P); none (N). Here is the method: Lipid films containing binary mixtures of lipids were made from aliquots of stock solutions in chloroform:methanol (2:1). The solvent was evaporated with a stream of nitrogen gas and the lipids deposited as a film on the walls of a glass tube. The tubes were then placed in a vacuum dessicator for 3 hours. The films were kept under Argon at −20° C. The lipid films were hydrated with buffer solutions of OAK polymers with extensive vortexing, so as to have a lipid to polymer molar ratio of […].
Hydrated films were subjected to freeze thawing three times before imaging, to ensure proper equilibration of OAK with the multilamellar vesicles. A drop of this mixture was placed on a glass slide and covered with a glass coverslip. Light microscopy was carried out at room temperature using a Zeiss Axiovert 100M microscope with a Plan-Neofluar 100×/1.3 oil immersion objective. Images were analyzed with the Zeiss LSM image browser v2.8.
The morphology of the samples of different OAKs and different lipid mixtures could be classified into the following categories.
Table 5 presents the results of cochleate formation with different lipid mixtures of 1:10 lipid to polymer ratio, and a series of OAK polymers, indicated by their alternative denotations and SED ID Nos in parentheses. “Tm” denotes the melting temperature of the lipid bilayer afforded by the given lipid mixture. Some selected samples were further analyzed to confirm the results with freeze fracture electron microscopy for, as indicated in Table 5. Cochleate formation is defined as excellent (E) or above (E!), good (G), poor (P), or none (N) based on the aforementioned comparison, as well as on the abundance of cochleate structures observed in the light microscopy images. Lipid mixtures having a number in parenthesis are samples for which freeze-fracture electron microscopy analysis was conducted. Lipid mixtures having a “+” sign next to the number in parenthesis are samples which were confirmed by freeze-fracture electron microscopy as forming large cochleates with few vesicles and no inverted micellar (HII) morphology (samples 2, 3 and 5), or smaller cochleate structures mixed with other morphologies (samples 0 and 4). Lipid mixtures which contain only anionic lipids are marked with “^A”. Sample 0 is the lipid/OAK system used and presented in Example 1 hereinabove.

Series [3] concerns E. coli AG100. Nature of the series: Bactericidal kinetics (time-kill). It counts as cell-based. Conditions: sub-MIC concentrations, FIG. 2B. As to the method: Bacteria were sampled at various time intervals, subjected to serial 10-fold dilutions, and plated onto LB-agar. Cell counts were determined using the drop plate method. Plates were incubated overnight at 37° C. and colonies were counted.

A short description of series [4]: Maximal tolerated dose (MTD), single IV injection. Conditions: mice, free OAK.
A short description of series [5]: Encapsulation efficiency, liposome versus cochleate (MIC and fluorescamine methods). Format: physicochemical.
A short description of series [6]: Molecular charge and RP-HPLC hydrophobicity of polymers. It counts as physicochemical. Conditions: HPLC-RP gradient mobile phase. An excerpt: Briefly, the polymers were synthesized while applying the Fmoc active ester chemistry on a fully automated, programmable peptide synthesizer (Applied Biosystems 433A). After cleavage from the resin, the crude product was extracted with 30% acetonitrile in water and purified by RP-HPLC (Alliance Waters), so as to obtain a chromatographic homogeneity higher than 95%. HPLC runs were typically performed on C18 columns (Vydac, 250 mm×4.6 or 10 mm) using a linear gradient of acetonitrile in water (1% per minute), both solvents containing 0.1% trifluoroacetic acid. The purified polymers were subjected to mass spectrometry (ZQ Waters) and NMR analyses to confirm their composition, and stored as a lyophilized powder at −20° C. Prior to being tested, fresh solutions were prepared in water, vortexed, sonicated, centrifuged and then diluted in the appropriate medium.
“Q” represents the overall molecular charge at physiological pH; “ACN (%)” represents the percent of acetonitrile in the HPLC-RP gradient mobile phase at which the polymer was eluted and which corresponds to the estimated hydrophobicity of the polymer. The column headed by “Ref.” indicates prior reference of the OAK if present, wherein a number in parentheses “(##)” corresponds to the SEQ ID NO in U.S. Pat. No. 7,504,381; the letter “R” indicates a polymer published in Radzishevsky I. S. et al. (2008), Chem. Biol., 15(4), pp. 354-362; and “New” indicates a novel polymer disclosed herein.

The subject of series [7] is four MDR clinical isolates of E. coli. It counts as cell-based. Here is the method: (§1) Bacteria were grown overnight in LB growth medium and diluted 10,000-fold in same medium.
(§2) Inhibition of proliferation was determined by optical density measurements (620 nm) after incubation overnight at 37° C.

Another series has as its system E. coli. Format: cell-based. Here is the method: (§3) All bacteria were cultured in Luria-Bertani (LB) medium (10 g/l tryptone, 5 g/l yeast extract, 5 g/l NaCl, pH 7.4).
as §1, §2

For a further series, the system named is A. aureus. It counts as cell-based. As to the method: as §3, §1, §2
The nature of series [8]: Freeze fracture electron microscopy of cochleates.
Series [9] deals with Klebsiella pneumoniae CI 1286. Nature of the series: Whole blood assay (stability and drug release). It counts as cell-based. Conditions: whole human blood, 37° C., 4 and 40 multiples of the MIC, FIG. 4D. Here is the method:
Stability and drug release rates were assessed using the human blood-resistant Klebsiella pneumoniae CI 1286. […] After the specified incubation periods (37° C.), aliquots were plated on LB agar as described above (Antibacterial assays) for CFU count.
The stability of OAK-cochleate and OAK-liposome preparations in whole blood was compared by assessing antibacterial activity against the blood-resistant strain of Klebsiella pneumonia.

Regarding `CCCCCCCCCCCC(=O)NC(CCCCN)C(=O)NCCCCCCCC(=O)NC(CCCCN)C(=O)NCCCCCCCC(=O)NC(CCCCN)C(=O)NCCCCCCCC(=O)NC(CCCCN)C(=O)NCCCCCCCC(=O)NC(CCCCN)C(=O)NCCCCCCCC(=O)NC(CCCCN)C(=O)NCCCCCCCC(=O)NC(CCCCN)C(=O)NCCCCCCCC(=O)NC(CCCCN)C(N)=O` (stereo not drawn) [C12K-7α8, C12K(NC8K)7NH2], the “EtBr uptake (intracellular accumulation)” value in the series on E. coli AG100 [1] is given as “enhanced in a dose-dependent manner”. In addition, the Cochleate formation result in [2] (DMPC:TOCL 75:25, 1:10 lipid to polymer ratio) is on record as “N”; in [2] (DMPE:DOPG 75:25, 1:10 lipid to polymer ratio), “E”; in series [2] (DMPE:TOCL 75:25, 1:10 lipid to polymer ratio) it was “E”; in [2] (DMPG:TOCL 75:25 (anionic lipids only), 1:10 lipid to polymer ratio) it was “N”; in series [2] (DOPE:TOCL 75:25, 1:10 lipid to polymer ratio), “P”; in series [2] (DPPE:TOCL 75:25, 1:10 lipid to polymer ratio) it was “E”. The Cochleate formation entry was “P” in series [2] (POPC:TOCL 75:25, 1:10 lipid to polymer ratio); “N” in [2] (POPE:DOPG 75:25, 1:10 lipid to polymer ratio); “N” in [2] (POPE:DOPG:TOCL 80:15:5, 1:10 lipid to polymer ratio); “poor cochleate former” in [2] (POPE:TOCL 50:50, lipid to polymer 10:1); “G” in series [2] (POPE:TOCL 75:25, 1:10 lipid to polymer ratio); “G” in [2] (POPG:TOCL 75:25 (anionic lipids only), 1:10 lipid to polymer ratio). For the same compound, the Cochleate formation entry in [2] (TOCL alone, lipid to polymer 10:1) is listed as “abundance of smaller liposomes”. The “time-kill, OAK alone” value in the series with E. coli AG100 [3] is listed as “significant bactericidal activity at sub-MIC concentrations”. Moreover, the mortality in series [4] (10 mg/kg) amounted to 33%. In addition, the “maximal tolerated dose (MTD)” value in series [4] is roughly 5 mg OAK/kg. In addition, in [5] (cochleates (POPE:TOCL)), the “OAK encapsulation efficiency in cochleates (OAK bound)” value was greater than 80%. For the same compound, in series [5] (liposomes (PC:PEG2000)), the “OAK encapsulation efficiency in liposomes” value is less than 20%. The “ACN (%) (percent acetonitrile at elution, estimated hydrophobicity)” value in [6] is recorded as 47.5%. Besides, the “OAK MIC” value in series [7] came out at 6.9 µg/mL. In addition, the “MIC E. coli” value in the series with E. coli stood at 3.1 µM (≈ 6.86 µg/mL). Also, the “MIC A. aureus” value in the series with A. aureus came out at 50 µM (≈ 111 µg/mL). Moreover, the “cochleate formation by freeze fracture electron microscopy” value in [8] (DMPE:TOCL (75:25), DPPE:TOCL (75:25) or DMPE:DOPG (75:25)) is reported as “strongly promoted the formation of large cochleates”; in [8] (POPC:TOCL (75:25) or POPG:TOCL (75:25)) it was “weakly promoted cochleate formation”. For the same compound, the “Pre-formed and fully formed cochleate Length” value in series [8] (POPC:TOCL 75:25, 10:1 lipid to polymer) was “(1.8) μm”.

Take C12K(NC8K)7NH2 [C12K-7α8]: in [9], the “antibacterial activity / OAK release in whole blood” value was “maintained rapid bactericidal activity”.
